Like-named read-outs stand apart in the source and are kept apart here.

One experiment addresses T1, hGIPR (Homo sapiens, UniProt P48546).
T1 construct: expressed in transfected cells
T1 sequence (P48546 22-466): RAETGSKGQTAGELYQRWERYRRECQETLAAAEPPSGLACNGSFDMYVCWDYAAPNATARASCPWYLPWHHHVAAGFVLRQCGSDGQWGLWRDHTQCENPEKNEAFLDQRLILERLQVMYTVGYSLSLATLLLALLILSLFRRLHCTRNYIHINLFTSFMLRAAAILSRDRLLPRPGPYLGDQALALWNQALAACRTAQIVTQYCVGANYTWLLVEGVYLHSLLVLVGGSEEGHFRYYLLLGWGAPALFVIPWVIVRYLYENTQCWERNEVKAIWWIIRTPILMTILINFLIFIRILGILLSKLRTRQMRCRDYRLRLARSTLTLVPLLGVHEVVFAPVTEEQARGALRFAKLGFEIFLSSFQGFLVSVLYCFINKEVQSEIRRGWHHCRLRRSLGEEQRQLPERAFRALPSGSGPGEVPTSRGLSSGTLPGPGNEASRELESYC
In words: Functional cAMP formation (HTRF) in HEK-293 clonal cells expressing hGIPR, 0.1% bovine casein, without or with 1.0% human serum albumin. The format is cell-based. The settings on record: for EC50: geometric mean, read-out: hGIPR EC50, nM (SEM, n); for Emax: read-out: hGIPR Emax, % ± SEM. In short, it runs like this: (§1)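 Cells were stimulated with peptide for 30 min at 37° C, then lysed in buffer carrying cAMP-d2 and anti-cAMP Eu3+-cryptate for a competitive HTRF read after at least 60 min at room temperature. The 665/620 nm ratio was converted to nM cAMP against a standard curve.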
Background: Changes in cAMP serve as a functional read-out for many G protein-coupled receptors.

Another experiment has as its target T2, hGCGR (Homo sapiens, UniProt P47871).
T2 construct: expressed in transfected cells
Kind of experiment: Functional cAMP formation (HTRF) in HEK-293 clonal cells expressing hGCGR, 0.1% bovine casein, without or with 1.0% human serum albumin. The settings on record: geometric mean, read-out: hGCGR EC50, nM (SEM, n). It counts as cell-based. In short, it runs like this:
as §1

The next experiment has as its target hGLP-1R (Homo sapiens, UniProt P43220). In words: Functional cAMP formation (HTRF) in HEK-293 clonal cells expressing hGLP-1R, 0.1% bovine casein, without or with 1.0% human serum albumin. It counts as cell-based. Details: expressed in transfected cells. The conditions noted are these: for EC50: geometric mean, read-out: hGLP-1R EC50, nM (SEM, n). In short, it runs like this:
as §1

Experiment [1] has as its target T3, human Gcg receptor (hGcgR) (Homo sapiens, UniProt P47871).
T3 construct: expressed in transfected cells; crude membranes
In words: [125I]-Glucagon binding, SPA with membranes of HEK293 cells expressing hGcgR. The conditions noted are these: human GcgR; geometric mean (SEM, n); read-out: Binding Affinity Ki, nM (SEM, n) hGCGR. As to the method: Two methods are used for the preparation of crude cell membranes.
Method 1: Frozen cell pellets are lysed on ice in hypotonic buffer containing 50 mM Tris HCl, pH 7.5, and Roche Complete™ Protease Inhibitors with EDTA. […] The homogenate is centrifuged at 4° C. at 1100 × g for 10 minutes. The supernatant is collected and stored on ice while the pellets are resuspended in homogenization buffer and rehomogenized as described above. The homogenate is centrifuged at 1100 × g for 10 minutes. The second supernatant is combined with the first supernatant and centrifuged at 35000 × g for 1 hour at 4° C. The resulting membrane pellet is resuspended in homogenization buffer containing protease inhibitors at approximately 1 to 3 mg/mL, quick frozen in liquid nitrogen and stored as aliquots in a -80° C. freezer until use.
The homogenate is centrifuged at 4° C. at 1800 × g for 15 minutes. The supernatant is collected and stored on ice while the pellets are resuspended in homogenization buffer (without DNAse I) and rehomogenized as described above. The homogenate is centrifuged at 1800 × g for 15 minutes. The second supernatant is combined with the first supernatant and centrifuged an additional time at 1800 × g for 15 minutes. The overall supernatant is then centrifuged at 25000 × g for 30 minutes at 4° C. The resulting membrane pellet is resuspended in homogenization buffer (without DNAse I) containing protease inhibitors at approximately 1 to 3 mg/mL and stored as aliquots in a -80° C. freezer until use.
The human Gcg receptor binding assays are performed using a Scintillation Proximity Assay (SPA) format with wheat germ agglutinin (WGA) beads (Perkin Elmer). The binding buffer contains 25 mM 4-(2-hydroxyethyl)-1-piperazineethanesulfonic acid (HEPES), pH 7.4, 2.5 mM CaCl2, 1 mM MgCh, 0.1% (w/v) bacitracin (Research Products), 0.003% (w/v) Polyoxyethylenesorbitan monolaurate (TWEEN®-20), and Roche Complete™ Protease Inhibitors without EDTA. […] Next, 5 µL serially diluted compound or DMSO is transferred into Corning® 3632 clear bottom assay plates containing 45 µL assay binding buffer or unlabeled Gcg control (non-specific binding or NSB, at 1 µM final). […] Plates are sealed and mixed on a plate shaker (setting 6) for 1 minute and read with a PerkinElmer Trilux MicroBeta® scintillation counter after 12 hours of incubation/settling time at room temperature.
Raw CPM data for concentration curves of peptides, Gcg, GLP-1, or GIP are converted to percent inhibition by subtracting nonspecific binding (binding in the presence of excess unlabeled Gcg, GLP-1, or GIP, respectively) from the individual CPM values and dividing by the total binding signal, also corrected by subtracting nonspecific binding. Data are analyzed using four-parameter (curve maximum, curve minimum, IC50, Hill slope) nonlinear regression routines (Genedata Screener, version 12.0.4, Genedata AG, Basal, Switzerland). […] Values for Ki are reported as the geometric mean, with error expressed as the standard error of the mean (SEM) and n is equal to the number of independent replicates (determined in assays performed on different days). Geometric Means are calculated as follows: […]
The Ki Ratio (Ki for native control peptide/Ki for test compound) at each receptor and each species is calculated. The Ki Ratio is a rapid indication of the apparent affinity of a peptide compared to the native control peptide.
n=⅟x means that only one value out of the total number of replicates (x) is used to express the mean. SEM is only calculated when n=2 or greater non-qualified results exist. Means are expressed as GeoMetric means with the standard error of the mean (SEM) and the number of replicates (n) indicated in parenthesis.

Setting [2] is: 0.1% bovine casein and 1.0% human serum albumin, 37° C.
Where [3] appears, read: HEK293, 0.1% bovine casein and 1.0% human serum albumin, 37° C., percent of maximal response to GIP(1-42)NH2.
Where [4] appears, read: HEK293, percent of maximal response to GIP(1-42)NH2, 37° C., 0.1% bovine casein, arithmetic mean.
The mark [5] stands for this setting: cAMP, incubated at 37° C., 0.1% bovine casein (no human serum albumin).

Sequence of hGLP-1R (P43220 24-463): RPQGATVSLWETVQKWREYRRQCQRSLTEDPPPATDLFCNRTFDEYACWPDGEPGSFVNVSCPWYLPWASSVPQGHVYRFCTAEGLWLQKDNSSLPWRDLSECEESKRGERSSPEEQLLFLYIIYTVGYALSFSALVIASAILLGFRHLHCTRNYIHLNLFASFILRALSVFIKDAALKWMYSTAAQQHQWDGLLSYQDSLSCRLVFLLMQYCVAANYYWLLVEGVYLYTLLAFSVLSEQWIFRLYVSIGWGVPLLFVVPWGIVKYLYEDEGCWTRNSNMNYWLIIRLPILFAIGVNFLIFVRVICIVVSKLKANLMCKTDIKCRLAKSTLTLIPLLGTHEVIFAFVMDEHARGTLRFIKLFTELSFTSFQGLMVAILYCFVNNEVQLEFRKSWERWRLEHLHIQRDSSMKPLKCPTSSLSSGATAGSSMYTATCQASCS
T2 sequence (P47871 26-477): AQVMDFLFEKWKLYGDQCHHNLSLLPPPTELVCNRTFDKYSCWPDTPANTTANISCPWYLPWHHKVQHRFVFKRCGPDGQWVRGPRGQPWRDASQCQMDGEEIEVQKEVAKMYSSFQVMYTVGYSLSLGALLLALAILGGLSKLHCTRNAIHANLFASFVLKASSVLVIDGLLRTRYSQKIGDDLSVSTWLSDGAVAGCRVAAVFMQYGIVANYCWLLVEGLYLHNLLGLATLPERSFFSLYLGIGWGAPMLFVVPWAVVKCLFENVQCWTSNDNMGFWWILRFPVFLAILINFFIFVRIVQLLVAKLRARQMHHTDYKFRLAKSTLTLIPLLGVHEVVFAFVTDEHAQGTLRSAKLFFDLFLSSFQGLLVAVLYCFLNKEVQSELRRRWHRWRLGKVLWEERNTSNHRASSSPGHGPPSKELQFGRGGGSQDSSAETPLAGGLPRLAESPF
T3 sequence (P47871 26-477): as above

Broadly, the EC50 is the concentration that produces a half-maximal response. By Emax is commonly meant the greatest response seen or fitted, relative to the assay's reference. For orientation: Ki means a measure of affinity in units of concentration, obtained from inhibition or displacement. Regarding `CC[C@H](C)[C@H](NC(=O)[C@H](CC(C)C)NC(=O)[C@](C)(Cc1ccc(O)cc1)NC(=O)[C@@H](CCC(=O)O)NC(=O)[C@@H](NC(=O)[C@H](Cc1ccccc1)NC(=O)[C@H](CCC(=O)O)NC(=O)C(C)(C)NC(=O)[C@H](CCC(N)=O)NC(=O)[C@H](C)NC(=O)[C@H](CCCCNC(=O)COCCOCCNC(=O)COCCOCCNC(=O)CC[C@H](NC(=O)CCCCCCCCCCCCC(=O)O)C(=O)O)NC(=O)[C@H](CCCN)NC(=O)[C@H](CC(=O)O)NC(=O)[C@H](CC(C)C)NC(=O)[C@](C)(CC(C)C)NC(=O)[C@@H](NC(=O)[C@H](CO)NC(=O)[C@H](CCCCNC(=O)COCCOCCNC(=O)COCCOCCNC(=O)CC[C@H](NC(=O)CCCCCCCCCCCCC(=O)O)C(=O)O)NC(=O)[C@H](CC(=O)O)NC(=O)[C@H](CO)NC(=O)[C@@H](NC(=O)[C@](C)(Cc1ccccc1F)NC(=O)[C@@H](NC(=O)CNC(=O)[C@H](CCC(=O)O)NC(=O)C(C)(C)NC(=O)[C@@H](N)Cc1ccc(O)cc1)[C@@H](C)O)[C@@H](C)O)[C@@H](C)CC)[C@@H](C)CC)C(=O)N[C@@H](CCC(=O)O)C(=O)NCC(=O)NCC(=O)N1CCC[C@H]1C(=O)N[C@@H](CO)C(=O)N[C@@H](CO)C(=O)NCC(=O)N[C@@H](C)C(=O)N1CCC[C@H]1C(=O)N1CCC[C@H]1C(=O)N1CCC[C@H]1C(=O)N[C@@H](CO)C(N)=O` [Example 27], the concentration for a half-maximal effect (EC50) at hGIPR (setting [2]) was 6.78 nM; on hGCGR (setting [2]) it was more than 9950 nM; at hGCGR (setting [5]) it was more than 9950 nM; on hGLP-1R (setting [2]), 70.2 nM. The Emax on hGIPR (setting [3]) is 82.8 ± 1.14%; at hGIPR (setting [4]), 88.8%; on hGLP-1R (HEK293, 0.1% bovine casein and 1.0% human serum albumin, 37° C., percent of maximal response to GLP-1(7-36)NH2, read-out: hGLP-1R Emax, % ± SEM), 110 ± 3.03%. The inhibition constant (Ki) in experiment [1] was more than 958 nM.

Consider `CC[C@H](C)[C@H](NC(=O)[C@H](CCCN)NC(=O)[C@H](CC(=O)O)NC(=O)[C@H](CC(C)C)NC(=O)[C@](C)(CC(C)C)NC(=O)[C@@H](NC(=O)C(C)(C)NC(=O)[C@H](Cc1ccncc1)NC(=O)[C@H](CC(=O)O)NC(=O)[C@H](CO)NC(=O)[C@@H](NC(=O)[C@](C)(Cc1ccccc1F)NC(=O)[C@@H](NC(=O)CNC(=O)[C@H](CCC(=O)O)NC(=O)C(C)(C)NC(=O)[C@@H](N)Cc1ccc(O)cc1)[C@@H](C)O)[C@@H](C)O)[C@@H](C)CC)C(=O)N[C@@H](C)C(=O)N[C@@H](CCC(N)=O)C(=O)NC(C)(C)C(=O)N[C@@H](CCC(=O)O)C(=O)N[C@@H](Cc1ccccc1)C(=O)N[C@H](C(=O)N[C@@H](CCCCNC(=O)COCCOCCNC(=O)COCCOCCNC(=O)CC[C@H](NC(=O)CCCCCCCCCCCCC(=O)O)C(=O)O)C(=O)N[C@@](C)(Cc1ccc(O)cc1)C(=O)N[C@@H](CC(C)C)C(=O)N[C@H](C(=O)N[C@@H](CCCCNC(=O)COCCOCCNC(=O)COCCOCCNC(=O)CC[C@H](NC(=O)CCCCCCCCCCCCC(=O)O)C(=O)O)C(=O)NCC(=O)NCC(=O)N1CCC[C@H]1C(=O)N[C@@H](CO)C(=O)N[C@@H](CO)C(=O)NCC(=O)N[C@@H](C)C(=O)N1CCC[C@H]1C(=O)N1CCC[C@H]1C(=O)N1CCC[C@H]1C(=O)N[C@@H](CO)C(N)=O)[C@@H](C)CC)[C@@H](C)CC` [Example 219], for which the figures for the Emax at hGIPR (setting [3]) and at hGIPR (setting [4]) were 82.9% and 96.7%, respectively. Moreover, the concentration giving a half-maximal response (EC50) on hGIPR (setting [5]) is 0.0227 nM; at hGCGR (setting [2]), more than 9950 nM; at hGCGR (setting [5]), more than 9950 nM; on hGLP-1R (setting [5]) it was 0.376 nM. For the same molecule, the Ki in experiment [1] stood at 135 nM.

For the molecule `CC[C@H](C)[C@H](NC(=O)[C@H](CCCN)NC(=O)[C@H](CC(=O)O)NC(=O)[C@H](CC(C)C)NC(=O)[C@](C)(CC(C)C)NC(=O)[C@@H](NC(=O)[C@H](CO)NC(=O)[C@H](Cc1ccncc1)NC(=O)[C@H](CC(=O)O)NC(=O)[C@H](CO)NC(=O)[C@@H](NC(=O)[C@](C)(Cc1ccccc1F)NC(=O)[C@@H](NC(=O)CNC(=O)[C@H](CCC(=O)O)NC(=O)C(C)(C)NC(=O)[C@@H](N)Cc1ccc(O)cc1)[C@@H](C)O)[C@@H](C)O)[C@@H](C)CC)C(=O)N[C@@H](C)C(=O)N[C@@H](CCC(N)=O)C(=O)NC(C)(C)C(=O)N[C@@H](CCC(=O)O)C(=O)N[C@@H](Cc1ccccc1)C(=O)N[C@H](C(=O)N[C@H](CCC(=O)O)C(=O)N[C@@](C)(Cc1ccc(O)cc1)C(=O)N[C@@H](CC(C)C)C(=O)N[C@H](C(=O)N[C@@H](CCCCNC(=O)COCCOCCNC(=O)COCCOCCNC(=O)CC[C@H](NC(=O)CCCCCCCCCCCCC(=O)O)C(=O)O)C(=O)NCC(=O)NCC(=O)N[C@@H](CCCCNC(=O)COCCOCCNC(=O)COCCOCCNC(=O)CC[C@H](NC(=O)CCCCCCCCCCCCC(=O)O)C(=O)O)C(=O)N[C@@H](CO)C(=O)N[C@@H](CO)C(=O)NCC(=O)N[C@@H](C)C(=O)N1CCC[C@H]1C(=O)N1CCC[C@H]1C(=O)N1CCC[C@H]1C(=O)N[C@@H](CO)C(N)=O)[C@@H](C)CC)[C@@H](C)CC` [Example 20], the EC50 was 1.66 nM on hGIPR (setting [2]), more than 9950 nM on hGCGR (setting [2]), more than 9950 nM on hGCGR (setting [5]) and 62.4 nM on hGLP-1R (setting [2]). The Emax was determined as 90.6 ± 0.878% at hGIPR (setting [3]) and 98.8 ± 3.19% at hGIPR (setting [4]). For the same molecule, the Ki in experiment [1] was found to be 139 nM.

(Values after patent US20230265151A1, “GIP/GLP1 CO-AGONIST COMPOUNDS” (priority 2020, published 2023).)
